# From patent US11766423B2 (THE JOHNS HOPKINS UNIVERSITY, priority 2018, dated 2023)
# Several values for one entry are separate records, joined by “and”; a condition that tells them apart may be missing. Equal entries are not always repeated. Entries after “also recorded” stand apart in the source; their conditions may differ.
# Assays:
# [1] = system: nSMase2; conditions: literature value; read-out: nSMase2 IC50 of prototype inhibitor; cited from earlier work
# [2] = system: GFAP-GFP mice; conditions: co-injection with IL-1β, Dickens et al. 2017; cited from earlier work
# [3] = system: Rat primary astrocytes; experiment: GFAP immunofluorescence, activation of serum-deprived astrocytes; type: cell-based; conditions: 10 μM, 2 h; for GFAP levels without serum starvation: complete medium; for astrocyte activation (GFAP) in response to serum starvation: serum deprivation
# Protocol: Media was collected after 2 h incubation and centrifuged at 2700 g for 15 minutes at 4° C. Supernatant was collected and the number of extracellular vesicles (EVs) was quantified using ZetaView Nanoparticle Tracker. The mean concentration of EVs/mL (±SEM) was calculated from 4 replicate experiments. […] GFP-containing exosomes released from astrocytes in the brain were quantified in plasma of mice 2.5 h following compound administration. Data are mean±SD, n=5-10 mice per condition. *, p<0.05 compared to saline control; ###, p<0.001 compared to IL1-β group; ***, p<0.001 compared to saline group. […] Astrocytes grown in complete medium were used as no treatment control. Cells were fixed and stained with anti-GFAP antibody (1:500, Sigma). Fluorescence intensity was measured using Image J. (FIG. 5D) Quantitation of fluorescence in (FIG. 5C). Bar graph represents background corrected mean fluorescence intensity measured from 100 astrocytes per condition. Error bars represent standard error of mean. One-way ANOVA followed by Tukey's posthoc test was performed;
# Cells were fixed and immunofluorescence labeling for GFAP was performed.
# [4] = in 19 of 759 bioassays; cited from earlier work
# [5] = system: primary astrocytes; experiment: Inhibition of exosome (EV) release from primary astrocytes; type: cell-based, mouse; conditions: 2 h; for effect on exosome (EV) release in vitro, in words: primary astrocytes, FBS withdrawal, 0.03-30 μM
# [6] = target: T1, human nSMase2 (Homo sapiens, UniProt Q9NY59); experiment: Fluorescence-based (Amplex Red) human nSMase2 activity assay; conditions: rate vs SM concentration at several DPTIP concentrations
# T1 sequence (Q9NY59 1-655): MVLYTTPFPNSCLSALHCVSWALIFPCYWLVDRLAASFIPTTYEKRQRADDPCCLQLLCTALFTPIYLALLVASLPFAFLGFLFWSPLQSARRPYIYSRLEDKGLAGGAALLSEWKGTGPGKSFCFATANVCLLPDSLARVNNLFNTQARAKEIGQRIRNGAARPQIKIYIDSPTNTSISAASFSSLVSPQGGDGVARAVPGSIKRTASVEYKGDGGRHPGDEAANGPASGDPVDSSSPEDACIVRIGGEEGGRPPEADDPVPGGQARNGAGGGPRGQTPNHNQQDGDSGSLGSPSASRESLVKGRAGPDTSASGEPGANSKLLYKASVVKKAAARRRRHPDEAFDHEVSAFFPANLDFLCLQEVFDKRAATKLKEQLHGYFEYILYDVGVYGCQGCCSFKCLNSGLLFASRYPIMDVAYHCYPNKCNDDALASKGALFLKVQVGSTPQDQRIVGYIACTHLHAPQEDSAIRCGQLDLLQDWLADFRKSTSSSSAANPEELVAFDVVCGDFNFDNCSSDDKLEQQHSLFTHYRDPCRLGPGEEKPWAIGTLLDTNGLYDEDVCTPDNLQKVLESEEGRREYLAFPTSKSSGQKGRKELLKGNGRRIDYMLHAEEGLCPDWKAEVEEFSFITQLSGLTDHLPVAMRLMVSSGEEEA
# [7] = target: alkaline phosphatase; experiment: Counter assay without nSMase2, phosphorylcholine as substrate; type: biochemical; conditions: phosphorylcholine 2 μM, no nSMase2, no SM; read-out: IC50 alkaline phosphatase in counter screen
# Protocol: Following assay validation, 365,000 compounds were screened from the Molecular Libraries Small Molecule Repository (MLSMR) and 2816 compounds were screened from the NCGC pharmaceutical collection (NPC) library for human nSMase2 inhibitors. Compounds were screened at 4 concentrations: 1.1 μM, 11 μM, 57 μM and 114 μM. Cambinol (full does response in each plate) was used as positive control. After eliminating promiscuous compounds, 1990 compounds that had maximal inhibitory responses >50% at the highest concentration tested and robust curve response classes (CRC) (Inglese, et al., 2006) were selected for re-testing in the same human nSMase2 activity assay and counter screen. […] There were a total of 220 compounds for follow-up confirmation (FIG. 2A).
# [8] = Metabolic stability in mouse liver microsomes; type: in vitro ADME
# Protocol: (§1) One potential liability when using chemical probes in vivo is lack of metabolic stability which structurally inactivates the compound before it can reach its molecular target. […] Percent of drug remaining over time was determined by liquid chromatography-tandem mass spectrometry analysis (LC/MS/MS).
# (§2) Metabolic stability assay was conducted in mouse or human liver microsomes as has been described previously (Rais, et al., 2016) with minor modifications. Briefly, the reaction was carried out using potassium phosphate buffer (100 mM, pH 7.4), in the presence of an NADPH regenerating system (compound final concentration was 1 μM; 0.2 mg/mL microsomes). Compound disappearance was monitored over time using a liquid chromatography and tandem mass spectrometry (LC/MS/MS) method. Chromatographic analysis was performed using an Accela ultra high-performance system consisting of an analytical pump and an autosampler coupled with a TSQ Vantage mass spectrometer (Thermo Fisher Scientific Inc., Waltham, Mass.). […] The mobile phase consisted of 0.1% formic acid in acetonitrile and 0.1% formic acid in water with gradient elution.
# [9] = target: T2, acid sphingomyelinase (Homo sapiens, UniProt P17405); experiment: Acid sphingomyelinase selectivity study, standard protocol; type: biochemical; conditions: results not shown
# T2 sequence (P17405 47-631): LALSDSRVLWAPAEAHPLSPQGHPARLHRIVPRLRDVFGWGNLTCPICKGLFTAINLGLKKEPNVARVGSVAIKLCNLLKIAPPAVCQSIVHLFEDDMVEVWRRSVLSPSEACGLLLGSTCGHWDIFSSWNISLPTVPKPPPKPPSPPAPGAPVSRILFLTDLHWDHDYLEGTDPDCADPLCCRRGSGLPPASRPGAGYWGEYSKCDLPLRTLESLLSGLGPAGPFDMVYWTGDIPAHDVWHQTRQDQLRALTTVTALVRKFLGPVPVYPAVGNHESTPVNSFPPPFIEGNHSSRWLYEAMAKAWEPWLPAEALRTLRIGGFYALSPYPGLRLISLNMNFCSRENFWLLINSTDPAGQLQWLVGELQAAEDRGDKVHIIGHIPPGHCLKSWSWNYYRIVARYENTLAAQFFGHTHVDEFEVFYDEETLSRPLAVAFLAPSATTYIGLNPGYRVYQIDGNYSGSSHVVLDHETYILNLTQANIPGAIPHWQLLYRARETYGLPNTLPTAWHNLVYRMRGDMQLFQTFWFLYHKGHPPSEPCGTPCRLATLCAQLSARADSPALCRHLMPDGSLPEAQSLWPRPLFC
# [10] = system: GFAP-GFP mice; experiment: Mouse model of brain inflammation, striatal IL-1β injection in GFAP-GFP mice
# [11] = Metabolic stability in human liver microsomes; type: in vitro ADME
# Protocol: as §1, §2
# [12] = cited from earlier work
# [13] = 10 mg/kg IP 0.5 h before IL-1β, 2 h post IL-1β
# [14] = 10 mg/kg IP, liver qRT-PCR 2 h post IL-1β
smiles,measurement,setting,value
"COc1cc(-c2nc(-c3cccs3)c(-c3ccccc3)[nH]2)cc(OC)c1O [DPTIP, 2,6-dimethoxy-4-(5-phenyl-4-thiophen-2-yl-1H-imidazol-2-yl)-phenol]",GFAP levels without serum starvation,[3],did not change GFAP levels
same,astrocyte activation (GFAP) in response to serum starvation,[3],prevented astrocyte activation
same,weak activity observed in NCATS bioassays,[4],2 to 50 µM
same,EC50,"[5]; Mus musculus, Astrocyte, primary astrocytes activated by FBS withdrawal, 2 h treatment",~3 µM
same,"effect on exosome (EV) release in vitro, in words",[5],inhibited exosome release from astrocytes in a dose dependent manner; also recorded: inhibitor of EV release; also recorded: inhibits exosome release
same,mode of inhibition with respect to sphingomyelin,[6],noncompetitive inhibition; also recorded: non-competitive
same,IC50,[7],> 100 µM
same,"metabolic stability, in words",[8]; mouse liver microsomes with NADPH,metabolically stable
same,percent remaining,"[8]; mouse liver microsomes, NADPH, 1 h, 1 μM compound",100%
same,IC50,[9],> 100 µM
same,"effect on IL-1β-induced EV release in vivo, in words",[10]; [13],inhibitor of EV release; also recorded: inhibits exosome release
same,reduction of IL-1β-induced astrocyte-derived (GFP+) EVs in plasma,[10]; [13],51±13% and 70%
same,effect on IL-1β-induced upregulation of liver cytokines,[10]; [14],inhibited
same,"metabolic stability, in words",[11]; human liver microsomes with NADPH,metabolically stable
same,percent remaining,"[11]; human liver microsomes, NADPH, 1 h, 1 μM compound",100%
COc1cc(O)c(C(=O)O)c(-c2cc(O)c(O)cc2C)c1 [altenusin],neutrophil infiltration into brain parenchyma,[2],suppresses neutrophil infiltration
"COc1cc(OC)cc(-c2nc(-c3cccs3)c(-c3ccccc3)[nH]2)c1 [DPT, 2-(3,5-dimethoxyphenyl)-5-phenyl-4-(thiophen-2-yl)-1H-imidazole]",GFAP levels without serum starvation,[3],did not change GFAP levels
same,astrocyte activation (GFAP) in response to serum starvation,[3],failed to prevent astrocyte activation
same,"effect on exosome (EV) release in vitro, in words",[5]; listed as des hydroxyl inactive analog of DPTIP,did not inhibit
same,"effect on exosome (EV) release in vitro, in words",[5]; listed as des-hydroxyl analog,no effect
same,"effect on exosome (EV) release in vitro, in words",[5]; listed as inactive analog,no effect
same,"effect on IL-1β-induced EV release in vivo, in words",[10]; [13],no significant difference
same,"effect on IL-1β-induced EV release in vivo, in words","[10]; 10 mg/kg IP 0.5 h before IL-1β, 2 h post IL-1β, listed as des-hydroxyl analog",no difference
same,"effect on IL-1β-induced EV release in vivo, in words","[10]; 10 mg/kg IP 0.5 h before IL-1β, 2 h post IL-1β, listed as inactive analog",no statistically significant effect
same,effect on IL-1β-induced upregulation of liver cytokines,[10]; [14],no effect
same,effects on production of TNF-α and IL-6,[10]; [14],marginal and not statistically significant
same,reduction in CCL2 production,[10]; [14],not statistically significant
O=c1[nH]c(=S)[nH]c(-c2ccccc2)c1Cc1c(O)ccc2ccccc12 [Cambinol],IC50,[1],[…]
same,"in vivo pharmacokinetic profile, in words",[12],poor in vivo pharmacokinetic profile
